Data reported in US20240309004A1, “SELECTIVE CYCLIN-DEPENDENT KINASE INHIBITORS AND METHODS OF THERAPEUTIC USE THEREOF” (ViroKyne Therapeutics, LLC, priority 2021, published 2024).

Key:
[1] = target: CDK9/cyclin T1 (Homo sapiens (Human), UniProt P50750); assay: Kinase activity assay, CDK9/cyclin T1; format: biochemical; settings: Table 3.1.2; 10 μM ATP; 10-dose triplicate starting at 9.827 μM; unit not printed (table 3.1.1 prints M); read-out: CDK9/cyclin T1 kinase activity (IC50)
[2] = tested on: HCMV strain AD169; assay: HCMV primary assay (CPE), strain AD169, HFF cells; format: cell-based, Human Cytomegalovirus; settings: Human betaherpesvirus 5, HCMV primary assay, virus strain AD169, HFF cells
Procedure: The antiviral activity of the compound against HCMV in the described Primary assay was measured by treating primary Human foreskin fibroblast (HFF) cells infected with HCMV with a range of compound concentrations—description of methods for this assay can be found in section 1.3.2.1. […] . Additional tested assay parameters in this Primary assay can be found in Table 3.2.1 and include EC90, S150, and S190 values—descriptions of those data points can be found in section 3.2.1.

[3] = Cytotoxicity concurrent with HCMV AD169 primary assay; format: cell-based, human; settings: human, CC50
[4] = tested on: Human papillomavirus 11 strain HE611260.1; assay: Human papillomavirus 11 primary assay (replicon), C-33 A cells; format: cell-based; settings: strain HE611260.1, C-33 A cells
Text: (§1) An HPV11 replicon assay was developed and expresses the essential E1 and E2 proteins from the native promoter. The E2 origin binding protein interacts with the virus origin of replication and recruits the E1 replicative helicase which unwinds the DNA and helps to recruit the cellular DNA replication machinery (including DNA polymerases, type I and type II topoisomerases, DNA ligase, single-stranded DNA binding proteins, proliferating cell nuclear antigen). The replication complex then drives the amplification of the replicon which can be assessed by the expression of a destabilized NanoLuc reporter gene carried on the replicon. In this assay, the replicon (pMP619) is transfected into C-33 A cells grown as monolayers in 384-well plates. At 48 h post transfection, the enzymatic activity of the destabilized NanoLuc reporter is assessed with NanoGlo reagent. […] . Beadle et al., 2016.

[5] = Cytotoxicity concurrent with HPV11 primary assay; format: cell-based; settings: human, C-33 A cells
Text: as §1

[6] = tested on: Human herpes virus 6B strain Z29; assay: Human herpes virus 6B primary assay, strain Z29, MOLT-3 cells; format: cell-based, Human Herpesvirus 6B; settings: Human betaherpesvirus 6B
[7] = Cytotoxicity concurrent with HHV-6B primary assay; format: cell-based; settings: human, MOLT-3 cells
[8] = tested on: Human herpes virus 8 strain BCBL-1; assay: Human herpes virus 8 primary assay, BCBL-1 cells; format: cell-based, Human Herpesvirus 8; settings: Human gammaherpesvirus 8, BCBL1, strain BCBL-1, BCBL-1 cells
[9] = Cytotoxicity concurrent with HHV-8 primary assay; format: cell-based; settings: human, BCBL-1 cells
[10] = Metabolic stability in mice liver microsomes; settings: mice liver microsomes, 1 μM compound, 1 mM NADPH, 60 min
Procedure: Potassium phosphate buffer (Kphos) was prepared by adding 0.647 g potassium phosphate monobasic (KH2PO4) and 3.527 g potassium phosphate dibasic (K2HPO4) to 400 mL of Milli-Q water. pH of the buffer was adjusted to 7.4 and volume was made up to 500 mL.
Stock solutions of the test compounds were prepared in DMSO at a concentration of 1 mM.
To this microsomal mix 1.42 μL (1 mM) of test compound and positive control were spiked, from this mix 70 μL was transferred to 96 well plate and pre-incubated at 37° C. for 5 min. […] The plates were centrifuged at 4000 RPM for 15 min and 100 μL aliquots were submitted for analysis by LC-MS/MS.
Samples were monitored for parent compound disappearance in MRM mode using LC-MS/MS. The LC-MS/MS conditions and MRM chromatogram will be provided as per client request.
The peak area ratios of analyte versus internal standard were used to calculate the % remaining at the end of 60 minutes in presence NADPH.

Chain of CDK9/cyclin T1 (P50750 whole entry): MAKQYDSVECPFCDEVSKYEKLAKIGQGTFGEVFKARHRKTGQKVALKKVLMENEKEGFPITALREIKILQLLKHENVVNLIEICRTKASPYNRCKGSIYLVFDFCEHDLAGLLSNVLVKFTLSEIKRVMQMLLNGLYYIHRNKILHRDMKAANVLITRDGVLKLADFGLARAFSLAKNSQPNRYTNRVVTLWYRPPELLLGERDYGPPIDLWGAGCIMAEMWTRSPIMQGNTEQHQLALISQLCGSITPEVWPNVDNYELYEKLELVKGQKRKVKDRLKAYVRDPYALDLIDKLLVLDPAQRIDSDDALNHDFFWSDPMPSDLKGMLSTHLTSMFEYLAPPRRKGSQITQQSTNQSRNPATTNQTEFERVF
Chain of CDK9/cyclin T1 (O60563 whole entry partner): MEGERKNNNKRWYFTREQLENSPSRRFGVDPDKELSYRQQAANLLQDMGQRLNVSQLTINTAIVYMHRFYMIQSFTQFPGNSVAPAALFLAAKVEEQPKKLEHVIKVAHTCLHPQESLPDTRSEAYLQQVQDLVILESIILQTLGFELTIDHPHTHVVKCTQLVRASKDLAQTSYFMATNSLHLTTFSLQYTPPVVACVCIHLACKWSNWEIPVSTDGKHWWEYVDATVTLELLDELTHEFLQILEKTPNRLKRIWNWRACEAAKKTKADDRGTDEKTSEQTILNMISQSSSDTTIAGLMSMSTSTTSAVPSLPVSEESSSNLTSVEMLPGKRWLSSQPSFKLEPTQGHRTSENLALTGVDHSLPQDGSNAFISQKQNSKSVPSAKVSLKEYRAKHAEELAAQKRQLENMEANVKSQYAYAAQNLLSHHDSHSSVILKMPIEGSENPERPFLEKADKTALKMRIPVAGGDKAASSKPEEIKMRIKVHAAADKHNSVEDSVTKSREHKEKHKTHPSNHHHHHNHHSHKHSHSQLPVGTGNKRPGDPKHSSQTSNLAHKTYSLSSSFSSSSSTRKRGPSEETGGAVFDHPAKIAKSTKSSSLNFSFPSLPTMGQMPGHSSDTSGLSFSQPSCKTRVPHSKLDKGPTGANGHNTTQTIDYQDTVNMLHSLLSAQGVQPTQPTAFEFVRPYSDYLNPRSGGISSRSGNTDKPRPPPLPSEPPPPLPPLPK

## Fc1ccc2c(c1)nn1cnc(NC3CCOCC3)cc21 [VKT-320, 7-fluoro-N-(tetrahydro-2H-pyran-4-yl)pyrimido[1,6-b]indazol-3-amine]
[1]
  IC50: 1.68 µM
[2]; read-out: EC50
  EC50: 10 µM
[2]; read-out: EC90
  EC90: 10 µM
[3]
  CC50: 38.5 µM
[4]
  EC50: 7.99 µM
  EC90: 19.8 µM
[5]
  CC50: 50 µM
[6]
  EC50: 8.96 µM
  EC90: 32.6 µM
[7]
  CC50 at 7 d: 50 µM
[8]
  EC50: 22.1 µM
  EC90: 44.2 µM
[9]
  CC50: 50 µM
[10]
  % Remaining at 60 min: 37%
